Consider 70 compounds from ChEMBL document CHEMBL3507680, “University of Dundee, Gates Library screen for HepG2 cell viability”.

This data set in a line: Human HepG2 cell viability assay in 384 well format. It is filed as toxicity, cell-based. Also noted: dose 125 nL, time 70.5 hour; cytotoxicity at 70.5 h: concentration not given beside the values. As to conditions: HepG2 cells, read-out: Inhibition.
As for `Cc1cc2nc(C(C)C)cc(NCCc3ccncc3)n2n1`, the cytotoxicity at 70.5 h was -13.2%.
Take `Cn1nccc1CCC(=O)NC1CCCN(c2ccccn2)C1` (stereo not given): the cytotoxicity at 70.5 h was -1.31%.
Next, `COc1cccc(OCc2cc(C(=O)NC[C@H]3CCCN3)n[nH]2)c1`: -4.69%.
Next, `COc1cccc(C(C(=O)O)N2CCCN(C3CCCC3)CC2)c1OC` (stereo not given): 20.1%; `CC1CN(c2ccccc2Cl)C(=O)CN1C(=O)c1c[nH]c(=O)c(Cl)c1` (stereo not given): -0.811%; `CN1CCCC(C(=O)N2CCC(Oc3ncccn3)CC2)C1` (stereo not given): -4.47%.
Next, `Cc1ccc(C(=O)N2CCn3cc(CN4CCCCC4)nc3C2)o1`: 35.2%; `Cc1oncc1C(=O)N1CCOCC2(CCN(c3ccccn3)C2)C1` (stereo not given): -3.11%.
In the case of `Cc1cncc(C2CCN(C(=O)CCc3ccnn3C)CC2)n1`, the cytotoxicity at 70.5 h was found to be 23.6%.
Next, `COc1cccc(NC(=O)Nc2ccc3c(c2)CC(=O)N3)c1`: -16.9%.
`COc1ccc(CC(=O)N2CC[C@@H](OC)[C@@H]2Cc2cccnc2)cc1`: the cytotoxicity at 70.5 h is -4.94%.
In the case of `Cc1cc(C[S+]([O-])Cc2ccccc2F)on1` (stereo not given), the cytotoxicity at 70.5 h is -8.66%.
Next, `Cc1ccc(C(=O)N2CCCC(C(=O)N3CCCCC3)C2)c(O)c1` (stereo not given): 13.3%; `CN(CCC(F)(F)F)C(=O)C1CCCN1C(=O)OC(C)(C)C` (stereo not given): 0.473%; `Cc1nnc(N2CCCC3(CN(Cc4cnn(C)c4)CCO3)C2)o1` (stereo not given): -5.09%.
Next, `CCN1CCCC(c2c(-c3ccccc3)ncn2CCc2c[nH]cn2)C1` (stereo not given): -11.9%.
Next, `Cc1ccc(C(=O)Nc2ccc(N(C)C)nc2)n1C`: 3.75%.
In the case of `Cc1ccc(NC2CCN(C(=O)c3nccc4ccccc34)CC2)nn1`, the cytotoxicity at 70.5 h was -4.93%.
Next, `Cc1ccc(CN(C)C(=O)CN2CCCC(Cn3cncn3)C2)cc1` (stereo not given): 22.9%; `CCCNC(=O)c1sccc1N(C)S(=O)(=O)c1ccc(Cl)cc1`: 20.9%; `CCN(CC)CCNC(=O)c1cc(C(C)C)nc(N2CCCC2)n1`: 56.7%.
Next, `Cc1cc(C(=O)Nc2ccc(OC3CCOCC3)c(C)c2)[nH]n1`: -17.3%.
Next, `CC(Cn1ccnc1)NC(=O)N1CCN(Cc2cccnc2)CC1` (stereo not given): 0.583%.
With `CCc1ccc(C(NCC(N)=O)C(C)(C)C)o1` (stereo not given), the cytotoxicity at 70.5 h was -6.31%.
For the compound `COc1cnc(N2CCCN(c3ccc(F)cc3)CC2)nc1`, the cytotoxicity at 70.5 h was found to be 8.19%.
Next, `CNc1nc(C2CCCCN2C(=O)C(C)(C)OC)nc2c1CN(C)CC2` (stereo not given): -7.36%; `CC(C)Oc1cccc(C(=O)C2CCCN(S(=O)(=O)C(C)C)C2)c1` (stereo not given): -7.26%; `CCC(CO)NCc1ccc(-c2ccc(F)c(Cl)c2)o1` (stereo not given): 3.9%.
For the compound `Cc1cc(NCC(=O)N(C)Cc2cccs2)c(C(N)=O)cc1F`, the cytotoxicity at 70.5 h amounted to 0.052%.
Next, `Cc1cccc(CN2CCCC3(CCN(C4CCSCC4)C3)C2=O)c1` (stereo not given): 7.94%; `O=C(NC1CC1)NC(c1ccc(F)cc1)C1CC1` (stereo not given): -7.03%.
Next, `Cc1nccn1C1(C(=O)O)CCN(Cc2ccc3occc3c2)CC1`: -7.56%; `Cc1cc(NC(=O)N2CCCC2C(=O)NC2CC2)c2ncccc2c1` (stereo not given): -98%; `CCN(CC1CCOC1)C(=O)c1ccn(-c2cc(C)ccc2OC)n1` (stereo not given): -2.72%.
`Cn1ccc(-c2cc(C(=O)N3CCC(C(N)=O)CC3)c3ccccn23)n1`: the cytotoxicity at 70.5 h is -8.35%.
Next, `O=C(c1n[nH]cc1Br)N1CCOCC1`: -4.31%.
Next, `CO[C@H]1CN(C(=O)OC(C)(C)C)CC1NCc1ccn(C)c1` (stereo not given in full): -6.04%; `Cn1ccc2c(C(=O)N3CCCC(c4nnc[nH]4)C3)cccc21` (stereo not given): 4.32%.
On to `CC(SCCC(=O)NC(N)=O)c1ccc(F)cc1F` (stereo not given), for which the cytotoxicity at 70.5 h was -14.8%.
Next, `CC(C)c1n[nH]c(C2CN(C(=O)c3cc(Cl)c[nH]3)CCO2)n1` (stereo not given): -8.73%.
Next, `Cc1[nH]c2ccc(C(=O)N3C[C@@H](O)[C@H](N4CCOCC4)C3)cc2c1C`: -1.3%.
Next, `CN(C(=O)c1cc(F)ccc1F)[C@@H]1CC[C@@H](O)[C@@H]1O`: -2.95%; `COc1c(C2CCCN2Cc2c(C)noc2C)c(C)nn1C` (stereo not given): -5.56%; `CC(C)CS(=O)(=O)CCNC(=O)Nc1cccc2ncccc12`: 19.9%.
On to `CN1CCCN(S(=O)(=O)c2cnn(C)c2)c2cc(Cl)ccc21`, for which the cytotoxicity at 70.5 h was -3.72%.
Next, `Cc1nnc([C@H]2C[C@@H]3CCN(C(=O)C4CCOCC4)C[C@H]3O2)[nH]1`: -9.85%.
Next, `C[C@]1(O)CN(Cc2ncc[nH]2)CC[C@@H]1Oc1cccc(F)c1`: -1.65%; `CCc1ccc(C(C)NC(=O)c2ccc(CS(C)(=O)=O)o2)cc1` (stereo not given): -4.79%.
Next, `Cn1cc(C2CC(=O)NC23CCN(C(=O)c2cccnc2)CC3)cn1` (stereo not given): -3.63%; `O=C(NCCn1nc2ccccn2c1=O)c1cc(C2CC2)[nH]n1`: 2.27%; `Cc1ccc(-c2noc(CN3CCOC(Cn4cccn4)C3)n2)cc1` (stereo not given): -3.88%.
`Cc1ccc2c(n1)N(C)CCN(Cc1cnn(C)c1)C2`: the cytotoxicity at 70.5 h was -2.39%.
Next, `CS(=O)(=O)N1CCC2(CCN(Cc3nccs3)CC2)CC1`: -0.411%; `CCOCc1ncn2c1CN(C(=O)Nc1ccc(CC)cc1)CC2`: 14.1%; `COc1cccc(C2(CNC(C)c3nnc(C)o3)CCCC2)c1` (stereo not given): -13.9%.
As for `Cc1ncc(S(C)(=O)=O)c(N2CCCCCC2)n1`, the cytotoxicity at 70.5 h came to 7.29%.
Next, `CCCc1noc(CN2CCC(NC(=O)c3ccc(C)s3)CC2)n1`: -4.33%.
As for `Cc1cnn(C2CN(CC(=O)NCCOc3ccccc3)C2)c1`, the cytotoxicity at 70.5 h was -4.92%.
Take `CN(CC(O)C1CC1)C(=O)Nc1cc(F)cc(Br)c1` (stereo not given): the cytotoxicity at 70.5 h was found to be 26.3%.
`Cc1cc(C2CCCN2C(=O)CN(C)Cc2ccccc2)no1` (stereo not given): the cytotoxicity at 70.5 h was -5.16%.
Take `CN(Cc1ccco1)C1CCC12CCN(C(=O)c1ccco1)CC2` (stereo not given): the cytotoxicity at 70.5 h was -0.239%.
Regarding `N#CCCCOc1cccnc1NC(=O)CCC1CCCC1`, the cytotoxicity at 70.5 h is -0.625%.
Next, `O=S(=O)(c1ccccc1)N1CC[C@]2(C[C@@H](OCC3CC3)CO2)C1`: -10.2%; `O=S(=O)(C1CC1)N1CCO[C@@H]2CN(Cc3ccco3)C[C@@H]2C1`: -2.12%; `COc1ccc(CN2CCc3nnc(COCCN(C)C)n3CC2)cc1`: -17.3%.
For the compound `Cc1ccc(C(=O)NCCCN(C)S(C)(=O)=O)cc1-n1cccc1`, the cytotoxicity at 70.5 h was -8.22%.
Next, `CC(=O)Nc1nc(CN2CCCCC2Cn2cccn2)cs1` (stereo not given): 6.38%; `O[C@@H]1C[C@@H](c2nc(-c3ccc(OC(F)(F)F)cc3)no2)N(CC2CC2)C1`: -4.09%; `Cc1ccc(-n2nnc(C(=O)NCCS(N)(=O)=O)c2C2CC2)cc1`: -18.3%.
For the compound `CCn1cc(S(=O)(=O)NC2CCCN(CCCc3ccccc3)C2)cn1` (stereo not given), the cytotoxicity at 70.5 h is -1%.
